Measurements taken from patent US20250215012A1, “IKZF2 DEGRADERS AND USES THEREOF” (REGENTS OF THE UNIVERSITY OF MICHIGAN, priority 2022, published 2025).

Molecular target: IKZF2 (Homo sapiens (Human), UniProt Q96SW2+Q9UKS7)
Experiment: IKZF2 HiBiT Assay (Jurkat-IKZF2-HiBiT cell line)
Assay type: cell-based
Conditions: Jurkat-IKZF2-HiBiT cells, 24 hours; for DC50: read-out: HiBit assay degradation analysis DC50; for Dmax: read-out: HiBit assay degradation analysis Dmax
Procedure: Degradation of IKZF2 protein is determined by IKZF2 HiBiT assay using the Jurkat-IKZF2-HiBiT (Promega) cell line. Briefly, cells are seeded in culture medium. Compounds are serially diluted in culture medium, and certain volume of the diluted compounds is added to the appropriate well of the plate. After the addition of compounds, the cells are incubated. At the end of treatment, Nano-Glo HiBiT Lytic Detection Reagent (Promega) is added to each well, and then the plates are incubated at room temperature for a certain time period. The luminescent signal is measured using a CALRIOstar plate reader (BMG Labtech). The readings are normalized to the DMSO-treated cells and the IC50 is calculated by nonlinear regression (four parameters sigmoid fitted with variable slope, least squares fit, and no constraint) analysis using the GraphPad Prism 8 software.
Degradation of IKZF2 protein was determined by IKZF2 HiBiT assay using the Jurkat-IKZF2-HiBiT (Promega) cell line. […] Compounds were serially diluted in culture medium, and 20 μl of the diluted compounds were added to the appropriate wells of the plate. After the addition of compounds, the cells were incubated at 37° C. in an atmosphere of 5% CO2 for 24 hours. At the end of treatment, 40 ul of Nano-Glo HiBiT Lytic Detection Reagent (Promega) was added to each well, and then the plates were incubated at room temperature for 10-20 minutes. The luminescent signal was measured using a CALRIOstar plate reader (BMG Labtech). The readings were normalized to the DMSO-treated cells and the IC50 was calculated by nonlinear regression (four parameters sigmoid fitted with variable slope, least squares fit, and no constraint) analysis using the GraphPad Prism 8 software.

Chain of IKZF2 (Q9UKS7 whole entry): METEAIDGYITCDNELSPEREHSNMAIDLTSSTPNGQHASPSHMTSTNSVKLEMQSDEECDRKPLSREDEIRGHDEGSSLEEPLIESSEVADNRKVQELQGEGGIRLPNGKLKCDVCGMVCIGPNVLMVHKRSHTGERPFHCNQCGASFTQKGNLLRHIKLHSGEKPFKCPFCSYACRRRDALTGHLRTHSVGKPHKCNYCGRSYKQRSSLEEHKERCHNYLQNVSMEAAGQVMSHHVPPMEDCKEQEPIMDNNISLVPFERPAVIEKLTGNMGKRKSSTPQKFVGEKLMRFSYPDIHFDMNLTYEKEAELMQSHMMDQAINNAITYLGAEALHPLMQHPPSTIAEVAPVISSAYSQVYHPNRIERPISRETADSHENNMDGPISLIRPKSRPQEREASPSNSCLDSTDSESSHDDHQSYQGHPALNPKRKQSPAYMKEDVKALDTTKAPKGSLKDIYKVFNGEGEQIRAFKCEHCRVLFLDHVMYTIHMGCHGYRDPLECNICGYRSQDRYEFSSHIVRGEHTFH
Chain of IKZF2 (Q96SW2 whole entry): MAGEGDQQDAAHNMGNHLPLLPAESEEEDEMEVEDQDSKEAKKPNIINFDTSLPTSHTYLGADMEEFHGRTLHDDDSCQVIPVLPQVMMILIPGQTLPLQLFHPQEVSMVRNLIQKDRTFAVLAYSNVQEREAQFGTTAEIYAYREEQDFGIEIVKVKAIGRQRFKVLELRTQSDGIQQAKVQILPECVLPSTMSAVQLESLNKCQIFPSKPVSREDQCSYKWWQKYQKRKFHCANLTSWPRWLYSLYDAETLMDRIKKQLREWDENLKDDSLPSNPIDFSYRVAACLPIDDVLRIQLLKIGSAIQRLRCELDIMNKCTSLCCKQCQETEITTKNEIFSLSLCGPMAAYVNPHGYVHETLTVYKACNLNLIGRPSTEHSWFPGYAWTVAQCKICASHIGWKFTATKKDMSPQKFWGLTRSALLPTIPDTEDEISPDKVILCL
Chain of IKZF2 (Q16531 whole entry partner): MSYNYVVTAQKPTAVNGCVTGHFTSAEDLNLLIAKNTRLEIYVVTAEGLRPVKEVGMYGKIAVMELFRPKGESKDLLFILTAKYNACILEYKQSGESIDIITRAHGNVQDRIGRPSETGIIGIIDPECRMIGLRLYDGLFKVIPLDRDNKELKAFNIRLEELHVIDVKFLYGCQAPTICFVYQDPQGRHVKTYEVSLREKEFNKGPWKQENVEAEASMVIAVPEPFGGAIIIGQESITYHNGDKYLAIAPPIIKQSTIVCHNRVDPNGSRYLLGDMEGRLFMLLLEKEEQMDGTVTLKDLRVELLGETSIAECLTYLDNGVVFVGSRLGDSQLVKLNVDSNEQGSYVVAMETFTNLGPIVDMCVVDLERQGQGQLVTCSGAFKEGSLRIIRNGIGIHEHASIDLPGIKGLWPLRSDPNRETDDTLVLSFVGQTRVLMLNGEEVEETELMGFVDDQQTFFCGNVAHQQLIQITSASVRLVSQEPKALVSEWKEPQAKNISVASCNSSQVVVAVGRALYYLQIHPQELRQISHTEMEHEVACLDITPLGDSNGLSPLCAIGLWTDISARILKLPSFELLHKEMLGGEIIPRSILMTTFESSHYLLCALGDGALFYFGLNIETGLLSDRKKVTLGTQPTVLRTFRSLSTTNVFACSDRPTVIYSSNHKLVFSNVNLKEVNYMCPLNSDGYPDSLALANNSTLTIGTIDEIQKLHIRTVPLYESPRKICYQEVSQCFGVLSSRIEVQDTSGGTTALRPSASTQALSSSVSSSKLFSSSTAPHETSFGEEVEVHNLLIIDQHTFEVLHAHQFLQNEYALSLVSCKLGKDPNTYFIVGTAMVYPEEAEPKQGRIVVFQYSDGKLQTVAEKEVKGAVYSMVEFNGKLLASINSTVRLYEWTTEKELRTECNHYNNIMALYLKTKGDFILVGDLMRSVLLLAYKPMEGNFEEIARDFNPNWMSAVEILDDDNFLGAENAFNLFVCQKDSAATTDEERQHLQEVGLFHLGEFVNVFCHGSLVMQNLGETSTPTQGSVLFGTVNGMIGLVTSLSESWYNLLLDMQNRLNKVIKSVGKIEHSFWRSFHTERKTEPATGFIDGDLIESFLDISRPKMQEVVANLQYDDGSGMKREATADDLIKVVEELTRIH

Work on `O=C1CCC(N2Cc3c(ccc4c3OCC43CCN(Cc4cc(F)cc(F)c4)CC3)C2=O)C(=O)N1` (stereo not shown) [Compound A28, 3-(1′-(3,5-difluorobenzyl)-6-oxo-6,8-dihydro-2H,7H-spiro[furo[2,3-e]isoindole-3,4′-piperidin]-7-yl)piperidine-2,6-dione] yielded a DC50 greater than 500 nM and a Dmax of 40 to 60%.
Work on `CC(F)(F)c1ccc(CN2CCC3(CC2)COc2c3ccc3c2CN(C2CCC(=O)NC2=O)C3=O)cc1` (stereo not shown) [Compound A30, 3-(1′-(4-(1,1-difluoroethyl)benzyl)-6-oxo-6,8-dihydro-2H,7H-spiro[furo[2,3-e]isoindole-3,4′-piperidin]-7-yl)piperidine-2,6-dione] yielded a DC50 greater than 500 nM and a Dmax of less than 40%.
Compound `O=C1CCC(N2Cc3c(ccc4c3OCC43CCN(Cc4ccc(Cl)cc4)CC3)C2=O)C(=O)N1` (stereo not shown) [Compound A32] has a DC50 greater than 500 nM and a Dmax of less than 40%.
Work on `N#Cc1ccc(CN2CCC3(CC2)COc2c3ccc3c2CN(C2CCC(=O)NC2=O)C3=O)cc1Cl` (stereo not shown) [Compound A33, 2-chloro-4-((7-(2,6-dioxopiperidin-3-yl)-6-oxo-7,8-dihydro-2H,6H-spiro[furo[2,3-e]isoindole-3,4′-piperidin]-1′-yl)methyl)benzonitrile] yielded a DC50 greater than 500 nM and a Dmax of 40 to 60%.
Work on `O=C1CCC(N2Cc3c(ccc4c3OCC43CCN(Cc4ccc5ccccc5c4)CC3)C2=O)C(=O)N1` (stereo not shown) [Compound A34, 3-(1′-(naphthalen-2-ylmethyl)-6-oxo-6,8-dihydro-2H,7H-spiro[furo[2,3-e]isoindole-3,4′-piperidin]-7-yl)piperidine-2,6-dione] yielded a DC50 of less than 50 nM and a Dmax of 60 to 80%.
Compound `O=C1CCC(N2Cc3c(ccc4c3OCC43CCN(Cc4cccc5c(F)cccc45)CC3)C2=O)C(=O)N1` (stereo not shown) [Compound A35, 3-(1′-((5-fluoronaphthalen-1-yl)methyl)-6-oxo-6,8-dihydro-2H,7H-spiro[furo[2,3-e]isoindole-3,4′-piperidin]-7-yl)piperidine-2,6-dione] has a DC50 of less than 50 nM and a Dmax greater than 80%.
`O=C1CCC(N2Cc3c(ccc4c3OCC43CCN(Cc4ccc(F)c5ccccc45)CC3)C2=O)C(=O)N1` (stereo not shown) [Compound A36, 3-(1′-((4-fluoronaphthalen-1-yl)methyl)-6-oxo-6,8-dihydro-2H,7H-spiro[furo[2,3-e]isoindole-3,4′-piperidin]-7-yl)piperidine-2,6-dione] was tested, and the DC50 was 50 to 200 nM and the Dmax was 60 to 80%.
In the case of `O=C1CCC(N2Cc3c(ccc4c3OCC43CCN(Cc4ccc(Cl)c5ccccc45)CC3)C2=O)C(=O)N1` (stereo not shown) [Compound A37, 3-(1′-((4-chloronaphthalen-1-yl)methyl)-6-oxo-6,8-dihydro-2H,7H-spiro[furo[2,3-e]isoindole-3,4′-piperidin]-7-yl)piperidine-2,6-dione], the DC50 was greater than 500 nM and the Dmax was 40 to 60%.
For `O=C1CCC(N2Cc3c(ccc4c3OCC43CCN(Cc4cccc5ncccc45)CC3)C2=O)C(=O)N1` (stereo not shown) [Compound A38, 3-(6-oxo-1′-(quinolin-5-ylmethyl)-6,8-dihydro-2H,7H-spiro[furo[2,3-e]isoindole-3,4′-piperidin]-7-yl)piperidine-2,6-dione], the DC50 was 50 to 200 nM and the Dmax was 60 to 80%.
Compound `O=C1CCC(N2Cc3c(ccc4c3OCC43CCN(Cc4cccc5cnccc45)CC3)C2=O)C(=O)N1` (stereo not shown) [Compound A39, 3-(1′-(isoquinolin-5-ylmethyl)-6-oxo-6,8-dihydro-2H,7H-spiro[furo[2,3-e]isoindole-3,4′-piperidin]-7-yl)piperidine-2,6-dione] has a DC50 of less than 50 nM and a Dmax of 60 to 80%.
For `O=C1CCC(N2Cc3c(ccc4c3OCC43CCN(Cc4cccc5ccncc45)CC3)C2=O)C(=O)N1` (stereo not shown) [Compound A40, 3-(1′-(isoquinolin-8-ylmethyl)-6-oxo-6,8-dihydro-2H,7H-spiro[furo[2,3-e]isoindole-3,4′-piperidin]-7-yl)piperidine-2,6-dione], the DC50 was 50 to 200 nM and the Dmax was 60 to 80%.
Work on `O=C1CCC(N2Cc3c(ccc4c3OCC43CCN(Cc4cccc5cccnc45)CC3)C2=O)C(=O)N1` (stereo not shown) [Compound A41, 3-(6-oxo-1′-(quinolin-8-ylmethyl)-6,8-dihydro-2H,7H-spiro[furo[2,3-e]isoindole-3,4′-piperidin]-7-yl)piperidine-2,6-dione] yielded a DC50 of 50 to 200 nM and a Dmax of 60 to 80%.
Work on `O=C1CCC(N2Cc3c(ccc4c3OCC43CCN(Cc4nccc5ccccc45)CC3)C2=O)C(=O)N1` (stereo not shown) [Compound A42, 3-(1′-(isoquinolin-1-ylmethyl)-6-oxo-6,8-dihydro-2H,7H-spiro[furo[2,3-e]isoindole-3,4′-piperidin]-7-yl)piperidine-2,6-dione] yielded a DC50 greater than 500 nM and a Dmax of less than 40%.
For `O=C1CCC(N2Cc3c(ccc4c3OCC43CCN(Cc4cncc5ccccc45)CC3)C2=O)C(=O)N1` (stereo not shown) [Compound A43, 3-(1′-(isoquinolin-4-ylmethyl)-6-oxo-6,8-dihydro-2H,7H-spiro[furo[2,3-e]isoindole-3,4′-piperidin]-7-yl)piperidine-2,6-dione], the DC50 was greater than 500 nM and the Dmax was 40 to 60%.
`O=C1CCC(N2Cc3c(ccc4c3OCC43CCN(Cc4ccnc5ccccc45)CC3)C2=O)C(=O)N1` (stereo not shown) [Compound A44, 3-(6-oxo-1′-(quinolin-4-ylmethyl)-6,8-dihydro-2H,7H-spiro[furo[2,3-e]isoindole-3,4′-piperidin]-7-yl)piperidine-2,6-dione] showed a DC50 greater than 500 nM and a Dmax of less than 40%.
`O=C1CCC(N2Cc3c(ccc4c3OCC43CCN(Cc4ccc5ccncc5c4)CC3)C2=O)C(=O)N1` (stereo not shown) [Compound A45] showed a DC50 of 200 to 500 nM and a Dmax of 40 to 60%.
`O=C1CCC(N2Cc3c(ccc4c3OCC43CCN(Cc4ccc5ncccc5c4)CC3)C2=O)C(=O)N1` (stereo not shown) [Compound A46, 3-(6-oxo-1′-(quinolin-6-ylmethyl)-6,8-dihydro-2H,7H-spiro[furo[2,3-e]isoindole-3,4′-piperidin]-7-yl)piperidine-2,6-dione] gave a DC50 of 200 to 500 nM and a Dmax of 40 to 60%.
`O=C1CCC(N2Cc3c(ccc4c3OCC43CCN(Cc4cccc5nccnc45)CC3)C2=O)C(=O)N1` (stereo not shown) [Compound A47, 3-(6-oxo-1′-(quinoxalin-5-ylmethyl)-6,8-dihydro-2H,7H-spiro[furo[2,3-e]isoindole-3,4′-piperidin]-7-yl)piperidine-2,6-dione] showed a DC50 greater than 500 nM and a Dmax of 40 to 60%.
In the case of `O=C1CCC(N2Cc3c(ccc4c3OCC43CCN(Cc4ccc5nccnc5c4)CC3)C2=O)C(=O)N1` (stereo not shown) [Compound A48, 3-(6-oxo-1′-(quinoxalin-6-ylmethyl)-6,8-dihydro-2H,7H-spiro[furo[2,3-e]isoindole-3,4′-piperidin]-7-yl)piperidine-2,6-dione], the DC50 was greater than 500 nM and the Dmax was less than 40%.
With `O=C1CCC(N2Cc3c(ccc4c3OCC43CCN(Cc4cccc5cccc(F)c45)CC3)C2=O)C(=O)N1` (stereo not shown) [Compound A50, 3-(1′-((8-fluoronaphthalen-1-yl)methyl)-6-oxo-6,8-dihydro-2H,7H-spiro[furo[2,3-e]isoindole-3,4′-piperidin]-7-yl)piperidine-2,6-dione] the DC50 was less than 50 nM and the Dmax was 60 to 80%.
In the case of `Cn1ncc2cccc(CN3CCC4(CC3)COc3c4ccc4c3CN(C3CCC(=O)NC3=O)C4=O)c21` (stereo not shown) [Compound A53, 3-(1′-((1-methyl-1H-indazol-7-yl)methyl)-6-oxo-6,8-dihydro-2H,7H-spiro[furo[2,3-e]isoindole-3,4′-piperidin]-7-yl)piperidine-2,6-dione], the DC50 was greater than 500 nM and the Dmax was 40 to 60%.
`O=C1CCC(N2Cc3c(ccc4c3OCC43CCN(Cc4ccc5scnc5c4)CC3)C2=O)C(=O)N1` (stereo not shown) [Compound A54, 3-(1′-(benzo[d]thiazol-5-ylmethyl)-6-oxo-6,8-dihydro-2H,7H-spiro[furo[2,3-e]isoindole-3,4′-piperidin]-7-yl)piperidine-2,6-dione] gave a DC50 of 50 to 200 nM and a Dmax of 40 to 60%.
Compound `Cn1ncc2ccc(CN3CCC4(CC3)COc3c4ccc4c3CN(C3CCC(=O)NC3=O)C4=O)cc21` (stereo not shown) [Compound A57, 3-(1′-((1-methyl-1H-indazol-6-yl)methyl)-6-oxo-6,8-dihydro-2H,7H-spiro[furo[2,3-e]isoindole-3,4′-piperidin]-7-yl)piperidine-2,6-dione] has a DC50 of 50 to 200 nM and a Dmax of 60 to 80%.
Work on `O=C1CCC(N2Cc3c(ccc4c3OCC43CCN(Cc4cccn5nccc45)CC3)C2=O)C(=O)N1` (stereo not shown) [Compound A58, 3-(6-oxo-1′-(pyrazolo[1,5-a]pyridin-4-ylmethyl)-6,8-dihydro-2H,7H-spiro[furo[2,3-e]isoindole-3,4′-piperidin]-7-yl)piperidine-2,6-dione] yielded a DC50 greater than 500 nM and a Dmax of 40 to 60%.
Compound `O=C1CCC(N2Cc3c(ccc4c3OCC43CCN(Cc4cccc5cc[nH]c45)CC3)C2=O)C(=O)N1` (stereo not shown) [Compound A59, 3-(1′-((1H-indol-7-yl)methyl)-6-oxo-6,8-dihydro-2H,7H-spiro[furo[2,3-e]isoindole-3,4′-piperidin]-7-yl)piperidine-2,6-dione] has a DC50 of 50 to 200 nM and a Dmax greater than 80%.
`O=C1CCC(N2Cc3c(ccc4c3OCC43CCN(Cc4ccc5oncc5c4)CC3)C2=O)C(=O)N1` (stereo not shown) [Compound A60, 3-(1′-(benzo[d]isoxazol-5-ylmethyl)-6-oxo-6,8-dihydro-2H,7H-spiro[furo[2,3-e]isoindole-3,4′-piperidin]-7-yl)piperidine-2,6-dione] was tested, and the DC50 was greater than 500 nM and the Dmax was 40 to 60%.
